According to ChEMBL document CHEMBL3612057, “Discovery of indolizines containing triazine moiety as new leads for the development of antitumoral agents targeting mitotic events” (2015):
The source made the active and inactive calls. The rule behind the calls is not given here.

Legend:
SR = experiment: Cytotoxicity against human SR cells assessed as growth inhibition at 10 uM after 24 hrs by SRB assay; type: functional; conditions: read-out: GI
K562 = experiment: Cytotoxicity against human K562 cells assessed as growth inhibition at 10 uM after 24 hrs by SRB assay; type: functional
UACC-257 = experiment: Cytotoxicity against human UACC257 cells assessed as growth inhibition at 10 uM after 24 hrs by SRB assay; type: functional
UACC-62 = experiment: Cytotoxicity against human UACC62 cells assessed as growth inhibition at 10 uM after 24 hrs by SRB assay; type: functional
SF-539 = experiment: Cytotoxicity against human SF539 cells assessed as growth inhibition at 10 uM after 24 hrs by SRB assay; type: functional
[1] = Cytotoxicity against human Hs578T cells assessed as growth inhibition at 10 uM after 24 hrs by SRB assay; type: functional; conditions: Hs-578T, read-out: GI
Ovis aries = organism: Ovis aries; experiment: Inhibition of sheep tubulin polymerization at 100 uM by fluorescence assay
A549 = experiment: Cytotoxicity against human A549 cells assessed as growth inhibition at 10 uM after 24 hrs by SRB assay; type: functional
786-0 = experiment: Cytotoxicity against human 786-0 cells assessed as growth inhibition at 10 uM after 24 hrs by SRB assay; type: functional
NCI-H460 = experiment: Cytotoxicity against human NCI-H460 cells assessed as growth inhibition at 10 uM after 24 hrs by SRB assay; type: functional
OVCAR-3 = experiment: Cytotoxicity against human OVCAR3 cells assessed as growth inhibition at 10 uM after 24 hrs by SRB assay; type: functional
MCF7 = experiment: Cytotoxicity against human MCF7 cells assessed as growth inhibition at 10 uM after 24 hrs by SRB assay; type: functional
HL-60(TB) = experiment: Cytotoxicity against human HL-60(TB) cells assessed as growth inhibition at 10 uM after 24 hrs by SRB assay; type: functional
NCI-H522 = experiment: Cytotoxicity against human NCI-H522 cells assessed as growth inhibition at 10 uM after 24 hrs by SRB assay; type: functional
SK-MEL-28 = experiment: Cytotoxicity against human SK-MEL-28 cells assessed as growth inhibition at 10 uM after 24 hrs by SRB assay; type: functional
HOP-92 = experiment: Cytotoxicity against human HOP92 cells assessed as growth inhibition at 10 uM after 24 hrs by SRB assay; type: functional
U-251 = experiment: Cytotoxicity against human U251 cells assessed as growth inhibition at 10 uM after 24 hrs by SRB assay; type: functional
SNB-75 = experiment: Cytotoxicity against human SNB75 cells assessed as growth inhibition at 10 uM after 24 hrs by SRB assay; type: functional; conditions: SNB-75, 24 h, read-out: GI
NCI/ADR-RES = experiment: Cytotoxicity against human NCI/ADR-RES cells assessed as growth inhibition at 10 uM after 24 hrs by SRB assay; type: functional
TK-10 = experiment: Cytotoxicity against human TK10 cells assessed as growth inhibition at 10 uM after 24 hrs by SRB assay; type: functional
MDA-MB-435 = experiment: Cytotoxicity against human MDA-MB-435 cells assessed as growth inhibition at 10 uM after 24 hrs by SRB assay; type: functional
T47D = experiment: Cytotoxicity against human T47D cells assessed as growth inhibition at 10 uM after 24 hrs by SRB assay; type: functional
Malme-3M = experiment: Cytotoxicity against human MALME-3M cells assessed as growth inhibition at 10 uM after 24 hrs by SRB assay; type: functional
PC-3 = experiment: Cytotoxicity against human PC3 cells assessed as growth inhibition at 10 uM after 24 hrs by SRB assay; type: functional
MDA-MB-231 = experiment: Cytotoxicity against human MDA-MB-231 cells assessed as growth inhibition at 10 uM after 24 hrs by SRB assay; type: functional; conditions: MDA-MB-231, 24 h, read-out: GI
HCT-116 = experiment: Cytotoxicity against human HCT116 cells assessed as growth inhibition at 10 uM after 24 hrs by SRB assay; type: functional
ACHN = experiment: Cytotoxicity against human ACHN cells assessed as growth inhibition at 10 uM after 24 hrs by SRB assay; type: functional
NCI-H226 = experiment: Cytotoxicity against human NCI-H226 cells assessed as growth inhibition at 10 uM after 24 hrs by SRB assay; type: functional
OVCAR-4 = experiment: Cytotoxicity against human OVCAR4 cells assessed as growth inhibition at 10 uM after 24 hrs by SRB assay; type: functional
HOP-62 = experiment: Cytotoxicity against human HOP62 cells assessed as growth inhibition at 10 uM after 24 hrs by SRB assay; type: functional; conditions: HOP-62, 24 h, read-out: GI
RXF 393 = experiment: Cytotoxicity against human RXF393 cells assessed as growth inhibition at 10 uM after 24 hrs by SRB assay; type: functional; conditions: RXF 393, 24 h, read-out: GI
SK-MEL-5 = experiment: Cytotoxicity against human SK-MEL-5 cells assessed as growth inhibition at 10 uM after 24 hrs by SRB assay; type: functional
OVCAR-8 = experiment: Cytotoxicity against human OVCAR8 cells assessed as growth inhibition at 10 uM after 24 hrs by SRB assay; type: functional
CCRF-CEM = experiment: Cytotoxicity against human CCRF-CEM cells assessed as growth inhibition at 10 uM after 24 hrs by SRB assay; type: functional
SK-OV-3 = experiment: Cytotoxicity against human SKOV3 cells assessed as growth inhibition at 10 uM after 24 hrs by SRB assay; type: functional
RPMI-8226 = experiment: Cytotoxicity against human RPMI8226 cells assessed as growth inhibition at 10 uM after 24 hrs by SRB assay; type: functional
SF-295 = experiment: Cytotoxicity against human SF295 cells assessed as growth inhibition at 10 uM after 24 hrs by SRB assay; type: functional
CAKI-1 = experiment: Cytotoxicity against human CAKI-1 cells assessed as growth inhibition at 10 uM after 24 hrs by SRB assay; type: functional

| Compound | inhibition of growth at 10 µM (SR) [%] | growth inhibition (GI) (K562) | growth inhibition (GI) (UACC-257) | inhibition of growth at 10 µM [1] [%] | inhibition (Ovis aries) | growth inhibition (GI) (NCI-H460) | growth inhibition (GI) (OVCAR-3) | growth inhibition (GI) (HL-60(TB)) | growth inhibition (GI) (SK-MEL-28) | growth inhibition (GI) (HOP-92) | inhibition of growth at 10 µM (SNB-75) [%] | growth inhibition (GI) (MDA-MB-435) | growth inhibition (GI) (Malme-3M) | inhibition of growth at 10 µM (MDA-MB-231) [%] | growth inhibition (GI) (OVCAR-4) | inhibition of growth at 10 µM (HOP-62) [%] | inhibition of growth at 10 µM (RXF 393) [%] | growth inhibition (GI) (SK-MEL-5) | growth inhibition (GI) (CCRF-CEM) | growth inhibition (GI) (RPMI-8226) | further results |
| --- | --- | --- | --- | --- | --- | --- | --- | --- | --- | --- | --- | --- | --- | --- | --- | --- | --- | --- | --- | --- | --- |
| COc1ccc(C(=O)c2cc(-c3nc(OC)nc(OC)n3)c3ccccn23)cc1 | 19 | inactive | inactive | 25 | inactive | inactive | inactive | inactive | inactive | inactive | -17 | inactive | inactive | 50 | inactive | 97 | 59 | inactive | inactive | inactive | inhibition of growth at 10 µM (UACC-62; UACC-62, 24 h, read-out: GI): 11%; inhibition of growth at 10 µM (SF-539; SF-539, 24 h, read-out: GI): 32%; inhibition of growth at 10 µM (A549; A549, 24 h, read-out: GI): 21%; inhibition of growth at 10 µM (786-0; 786-0, 24 h, read-out: GI): 27%; inhibition of growth at 10 µM (MCF7; MCF7, 24 h, read-out: GI): 13%; inhibition of growth at 10 µM (NCI-H522; NCI-H522, 24 h, read-out: GI): 60%; inhibition of growth at 10 µM (U-251; U-251, 24 h, read-out: GI): 56%; inhibition of growth at 10 µM (NCI/ADR-RES; read-out: GI): 19%; inhibition of growth at 10 µM (TK-10; TK-10, 24 h, read-out: GI): 18%; inhibition of growth at 10 µM (T47D; read-out: GI): 17%; inhibition of growth at 10 µM (PC-3; PC-3, 24 h, read-out: GI): 18%; inhibition of growth at 10 µM (HCT-116; HCT-116, 24 h, read-out: GI): 36%; inhibition of growth at 10 µM (ACHN; read-out: GI): 54%; inhibition of growth at 10 µM (NCI-H226; NCI-H226, 24 h, read-out: GI): 12%; inhibition of growth at 10 µM (OVCAR-8; OVCAR-8, 24 h, read-out: GI): 16%; inhibition of growth at 10 µM (SK-OV-3; SK-OV-3, 24 h, read-out: GI): 54%; inhibition of growth at 10 µM (SF-295; SF-295, 24 h, read-out: GI): 47%; inhibition of growth at 10 µM (CAKI-1; CAKI-1, 24 h, read-out: GI): 26% |
| COc1ccc(C(=O)c2cc(-c3nc(OC)nc(OC)n3)c3cc(C#N)ccn23)cc1 | 13 | inactive | inactive | 16 | inactive | inactive | inactive | inactive | inactive | inactive | 46 | inactive | inactive | 18 | inactive | 25 | 14 | inactive | inactive | inactive | growth inhibition (GI) (UACC-62): inactive; growth inhibition (GI) (SF-539): inactive; growth inhibition (GI) (A549): inactive; growth inhibition (GI) (786-0): inactive; growth inhibition (GI) (MCF7): inactive; growth inhibition (GI) (NCI-H522): inactive; growth inhibition (GI) (U-251): inactive; growth inhibition (GI) (NCI/ADR-RES): inactive; growth inhibition (GI) (TK-10): inactive; growth inhibition (GI) (T47D): inactive; growth inhibition (GI) (PC-3): inactive; growth inhibition (GI) (HCT-116): inactive; growth inhibition (GI) (ACHN): inactive; growth inhibition (GI) (NCI-H226): inactive; growth inhibition (GI) (OVCAR-8): inactive; growth inhibition (GI) (SK-OV-3): inactive; growth inhibition (GI) (SF-295): inactive; growth inhibition (GI) (CAKI-1): inactive |
